Test results taken from patent publication US6852673B2, “Herbicidal pyridine compounds” (BASF Aktiengesellschaft, priority 1998, dated 2005).

Key:
Format in all cases: in vivo
[1] = test system: Matricaria inodora (MATIN); test: Pre-emergence herbicidal evaluation, mayweed
Procedure, shortened: (§1)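 Seeds are mixed into potting soil and planted; the pots are sprayed with aqueous acetone containing compound (about 0.0125 to 0.4 kg/ha equivalent); they are kept and watered in a greenhouse; each pot is rated at 2 to 4 weeks.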

Glycine max (GLXMA) = test: Pre-emergence herbicidal evaluation, soyabeans
Text: (§2) The pre-emergence herbicidal activity of the compounds of the present invention is exemplified by the following test in which the seeds of a variety of monocotyledonous and dicotyledonous plants are seperately mixed with potting soil and planted on top of approximately one inch of soil in separate pots. After planting, the pots are sprayed with the selected aqueous acetone solution containing test compound in sufficient quantity to provide the equivalent of about 0.0125 to 0.4 kg per hectare of test compound per pot. The treated pots are then placed on greenhouse benches, watered and cared for in accordance with conventional greenhouse procedures. From 2 to 4 weeks after treatment, the tests are terminated and each pot is examined and rated according to the rating system set forth below.

Stellaria media (STEME) = test: Pre-emergence herbicidal evaluation, chickweed
Procedure, shortened: as §1

Oryza sativum (ORYSA) [2] = test: Post-emergence herbicidal evaluation, rice; settings: rated 2 to 4 weeks after treatment
Protocol: (§3) [table] [table] […] These acetone solutions are diluted with water and the resulting formulations applied at dosage levels equivalent of about 0.03 to 0.4 kg per hectare of test compound per pot. After spraying the plants are placed on greenhouse benches and are cared for in the usual manner, commensurate with conventional greenhouse practices. From 2 to 4 weeks after treatment, the seedling plants are examined and rated according to the rating system provided above. A rating 0 indicates growth as untreated control, a rating 9 indicates death.

Galium aparine (GALAP) [3] = test: Post-emergence herbicidal evaluation, cleaver; settings: rated 2 to 4 weeks after treatment
Protocol: as §3

Setaria viridis (SETVI) [4] = test: Post-emergence herbicidal evaluation, green foxtail; settings: rated 2 to 4 weeks after treatment
Protocol: as §3

Lamium purpureum (LAMPU) [5] = test: Post-emergence herbicidal evaluation, purple deadnettle; settings: rated 2 to 4 weeks after treatment
Protocol: as §3

[6] = test system: Alopecurus myosuroides (ALOMY); test: Post-emergence herbicidal evaluation, black grass; settings: rated 2 to 4 weeks after treatment
Protocol: as §3

Zea mays (ZEAMX) = test: Post-emergence herbicidal evaluation, maize; settings: rated 2 to 4 weeks after treatment
Protocol: as §3

Oryza sativum (ORYSA) [7] = test: Pre-emergence herbicidal evaluation, rice
Text: as §2

Hordeum vulgare (HORVW) = test: Post-emergence herbicidal evaluation, winter barley; settings: rated 2 to 4 weeks after treatment
Protocol: as §3

[8] = test system: Abutilon theophrasti (ABUTH); test: Pre-emergence herbicidal evaluation, velvetleaf
Procedure, shortened: as §1

[9] = test system: Ambrosia artemiisifolia (AMBEL); test: Post-emergence herbicidal evaluation, ragweed; settings: rated 2 to 4 weeks after treatment
Protocol: as §3

[10] = test system: Triticum aestivum (TRZAW); test: Post-emergence herbicidal evaluation, winter wheat; settings: rated 2 to 4 weeks after treatment
Protocol: as §3

Galium aparine (GALAP) [11] = test: Pre-emergence herbicidal evaluation, cleaver
Procedure, shortened: as §1

[12] = test system: Ambrosia artemiisifolia (AMBEL); test: Pre-emergence herbicidal evaluation, ragweed
Text: as §2

Solanum nigrum (SOLNI) [13] = test: Post-emergence herbicidal evaluation, black nightshade; settings: rated 2 to 4 weeks after treatment
Protocol: as §3

Setaria viridis (SETVI) [14] = test: Pre-emergence herbicidal evaluation, green foxtail
Procedure, shortened: as §1

[15] = test system: Ipomoea hederacea (IPOHE); test: Post-emergence herbicidal evaluation, morning glory; settings: rated 2 to 4 weeks after treatment
Protocol: as §3

[16] = test system: Matricaria inodora (MATIN); test: Post-emergence herbicidal evaluation, mayweed; settings: rated 2 to 4 weeks after treatment
Protocol: as §3

Lamium purpureum (LAMPU) [17] = test: Pre-emergence herbicidal evaluation, purple deadnettle
Procedure, shortened: as §1

Solanum nigrum (SOLNI) [18] = test: Pre-emergence herbicidal evaluation, black nightshade
Procedure, shortened: as §1

[19] = test system: Echinochloa grus galli (ECHCG); test: Post-emergence herbicidal evaluation, barnyard grass; settings: rated 2 to 4 weeks after treatment
Protocol: as §3

[20] = test system: Abutilon theophrasti (ABUTH); test: Post-emergence herbicidal evaluation, velvetleaf; settings: rated 2 to 4 weeks after treatment
Protocol: as §3

[21] = test system: Triticum aestivum (TRZAW); test: Pre-emergence herbicidal evaluation, winter wheat
Procedure, shortened: as §1

[22] = test system: Alopecurus myosuroides (ALOMY); test: Pre-emergence herbicidal evaluation, black grass
Procedure, shortened: as §1

With `Cc1cc(OC/C=C/C(F)(F)F)nc(Oc2cc(C(F)(F)F)nn2C)c1` [Example 1, (E)-2-(1-Methyl-3-trifluoromethylpyrazol-5-yloxy)-4-methyl-6-(4,4,4-trifluorobut-2-enyloxy)pyridine] the MATIN rating ([1]; dose 0.013 kg/ha) was 8 (8 - Approaching complete kill), the MATIN rating ([1]; dose 0.025 kg/ha) was 9 (9 - Complete kill) and the MATIN rating ([1]; dose 0.1 kg/ha) was 9 (9 - Complete kill). For the same compound, the MATIN rating ([1]; dose 0.4 kg/ha) was 9 (9 - Complete kill), the GLXMA rating (Glycine max (GLXMA); dose 0.013 kg/ha) was 1 (1 - Trace effect) and the GLXMA rating (Glycine max (GLXMA); dose 0.025 kg/ha) was 1 (1 - Trace effect). For the same compound, the GLXMA rating (Glycine max (GLXMA); dose 0.1 kg/ha) was 4 (4 - Injury), the GLXMA rating (Glycine max (GLXMA); dose 0.4 kg/ha) was 5 (5 - Definite injury) and the “activity against Stellaria” value (Stellaria media (STEME)) was “superior activity”. The STEME rating (Stellaria media (STEME); dose 0.013 kg/ha) was 5 (5 - Definite injury), the STEME rating (Stellaria media (STEME); dose 0.025 kg/ha) was 9 (9 - Complete kill) and the STEME rating (Stellaria media (STEME); dose 0.1 kg/ha) was 9 (9 - Complete kill). The STEME rating (Stellaria media (STEME); dose 0.4 kg/ha) was 9 (9 - Complete kill), the ORYSA rating (Oryza sativum (ORYSA) [2]; dose 0.03 kg/ha) was 2 (2 - Slight effect) and the ORYSA rating (Oryza sativum (ORYSA) [2]; dose 0.1 kg/ha) was 3 (3 - Moderate effect). For the same compound, the ORYSA rating (Oryza sativum (ORYSA) [2]; dose 0.4 kg/ha) was 5 (5 - Definite injury), the GALAP rating (Galium aparine (GALAP) [3]; dose 0.03 kg/ha) was 7 (7 - Good herbicidal effect) and the GALAP rating (Galium aparine (GALAP) [3]; dose 0.1 kg/ha) was 8 (8 - Approaching complete kill). For the same compound, the GALAP rating (Galium aparine (GALAP) [3]; dose 0.4 kg/ha) was 8 (8 - Approaching complete kill), the SETVI rating (Setaria viridis (SETVI) [4]; dose 0.03 kg/ha) was 5 (5 - Definite injury) and the SETVI rating (Setaria viridis (SETVI) [4]; dose 0.1 kg/ha) was 8 (8 - Approaching complete kill). The SETVI rating (Setaria viridis (SETVI) [4]; dose 0.4 kg/ha) was 8 (8 - Approaching complete kill), the LAMPU rating (Lamium purpureum (LAMPU) [5]; dose 0.03 kg/ha) was 8 (8 - Approaching complete kill) and the LAMPU rating (Lamium purpureum (LAMPU) [5]; dose 0.1 kg/ha) was 8 (8 - Approaching complete kill). The LAMPU rating (Lamium purpureum (LAMPU) [5]; dose 0.4 kg/ha) was 8 (8 - Approaching complete kill), the ALOMY rating ([6]; dose 0.03 kg/ha) was 6 (6 - Herbicidal effect) and the ALOMY rating ([6]; dose 0.1 kg/ha) was 8 (8 - Approaching complete kill). For the same compound, the ALOMY rating ([6]; dose 0.4 kg/ha) was 8 (8 - Approaching complete kill), the ZEAMX rating (Zea mays (ZEAMX); dose 0.03 kg/ha) was 2 (2 - Slight effect) and the ZEAMX rating (Zea mays (ZEAMX); dose 0.1 kg/ha) was 5 (5 - Definite injury). For the same compound, the ZEAMX rating (Zea mays (ZEAMX); dose 0.4 kg/ha) was 6 (6 - Herbicidal effect), the ORYSA rating (Oryza sativum (ORYSA) [7]; dose 0.013 kg/ha) was 2 (2 - Slight effect) and the ORYSA rating (Oryza sativum (ORYSA) [7]; dose 0.025 kg/ha) was 2 (2 - Slight effect). The ORYSA rating (Oryza sativum (ORYSA) [7]; dose 0.1 kg/ha) was 4 (4 - Injury), the ORYSA rating (Oryza sativum (ORYSA) [7]; dose 0.4 kg/ha) was 5 (5 - Definite injury) and the HORVW rating (Hordeum vulgare (HORVW); dose 0.03 kg/ha) was 3 (3 - Moderate effect). The HORVW rating (Hordeum vulgare (HORVW); dose 0.1 kg/ha) was 5 (5 - Definite injury), the HORVW rating (Hordeum vulgare (HORVW); dose 0.4 kg/ha) was 5 (5 - Definite injury) and the “activity against Abutilon” value [8] was “superior activity”. The ABUTH rating ([8]; dose 0.013 kg/ha) was 7 (7 - Good herbicidal effect), the ABUTH rating ([8]; dose 0.025 kg/ha) was 7 (7 - Good herbicidal effect) and the ABUTH rating ([8]; dose 0.1 kg/ha) was 8 (8 - Approaching complete kill). For the same compound, the ABUTH rating ([8]; dose 0.4 kg/ha) was 9 (9 - Complete kill), the AMBEL rating ([9]; dose 0.03 kg/ha) was 6 (6 - Herbicidal effect) and the AMBEL rating ([9]; dose 0.1 kg/ha) was 7 (7 - Good herbicidal effect). For the same compound, the AMBEL rating ([9]; dose 0.4 kg/ha) was 7 (7 - Good herbicidal effect), the TRZAW rating ([10]; dose 0.03 kg/ha) was 2 (2 - Slight effect) and the TRZAW rating ([10]; dose 0.1 kg/ha) was 3 (3 - Moderate effect). For the same compound, the TRZAW rating ([10]; dose 0.4 kg/ha) was 5 (5 - Definite injury), the GALAP rating (Galium aparine (GALAP) [11]; dose 0.013 kg/ha) was 1 (1 - Trace effect) and the GALAP rating (Galium aparine (GALAP) [11]; dose 0.025 kg/ha) was 2 (2 - Slight effect). The GALAP rating (Galium aparine (GALAP) [11]; dose 0.1 kg/ha) was 7 (7 - Good herbicidal effect), the GALAP rating (Galium aparine (GALAP) [11]; dose 0.4 kg/ha) was 9 (9 - Complete kill) and the AMBEL rating ([12]; dose 0.013 kg/ha) was 5 (5 - Definite injury). The AMBEL rating ([12]; dose 0.025 kg/ha) was 9 (9 - Complete kill), the AMBEL rating ([12]; dose 0.1 kg/ha) was 9 (9 - Complete kill) and the AMBEL rating ([12]; dose 0.4 kg/ha) was 9 (9 - Complete kill). The SOLNI rating (Solanum nigrum (SOLNI) [13]; dose 0.03 kg/ha) was 5 (5 - Definite injury), the SOLNI rating (Solanum nigrum (SOLNI) [13]; dose 0.1 kg/ha) was 5 (5 - Definite injury) and the SOLNI rating (Solanum nigrum (SOLNI) [13]; dose 0.4 kg/ha) was 5 (5 - Definite injury). The “activity against Setaria” value (Setaria viridis (SETVI) [14]) was “superior activity”, the SETVI rating (Setaria viridis (SETVI) [14]; dose 0.013 kg/ha) was 9 (9 - Complete kill) and the SETVI rating (Setaria viridis (SETVI) [14]; dose 0.025 kg/ha) was 9 (9 - Complete kill). For the same compound, the SETVI rating (Setaria viridis (SETVI) [14]; dose 0.1 kg/ha) was 9 (9 - Complete kill), the SETVI rating (Setaria viridis (SETVI) [14]; dose 0.4 kg/ha) was 9 (9 - Complete kill) and the IPOHE rating ([15]; dose 0.03 kg/ha) was 9 (9 - Complete kill). The IPOHE rating ([15]; dose 0.1 kg/ha) was 9 (9 - Complete kill), the IPOHE rating ([15]; dose 0.4 kg/ha) was 9 (9 - Complete kill) and the MATIN rating ([16]; dose 0.03 kg/ha) was 8 (8 - Approaching complete kill). The MATIN rating ([16]; dose 0.1 kg/ha) was 8 (8 - Approaching complete kill), the MATIN rating ([16]; dose 0.4 kg/ha) was 8 (8 - Approaching complete kill) and the LAMPU rating (Lamium purpureum (LAMPU) [17]; dose 0.013 kg/ha) was 8 (8 - Approaching complete kill). For the same compound, the LAMPU rating (Lamium purpureum (LAMPU) [17]; dose 0.025 kg/ha) was 9 (9 - Complete kill), the LAMPU rating (Lamium purpureum (LAMPU) [17]; dose 0.1 kg/ha) was 9 (9 - Complete kill) and the LAMPU rating (Lamium purpureum (LAMPU) [17]; dose 0.4 kg/ha) was 9 (9 - Complete kill). For the same compound, the SOLNI rating (Solanum nigrum (SOLNI) [18]; dose 0.013 kg/ha) was 4 (4 - Injury), the SOLNI rating (Solanum nigrum (SOLNI) [18]; dose 0.025 kg/ha) was 8 (8 - Approaching complete kill) and the SOLNI rating (Solanum nigrum (SOLNI) [18]; dose 0.1 kg/ha) was 9 (9 - Complete kill). The SOLNI rating (Solanum nigrum (SOLNI) [18]; dose 0.4 kg/ha) was 9 (9 - Complete kill), the ECHCG rating ([19]; dose 0.03 kg/ha) was 5 (5 - Definite injury) and the ECHCG rating ([19]; dose 0.1 kg/ha) was 8 (8 - Approaching complete kill). For the same compound, the ECHCG rating ([19]; dose 0.4 kg/ha) was 8 (8 - Approaching complete kill), the ABUTH rating ([20]; dose 0.03 kg/ha) was 8 (8 - Approaching complete kill) and the ABUTH rating ([20]; dose 0.1 kg/ha) was 8 (8 - Approaching complete kill). The ABUTH rating ([20]; dose 0.4 kg/ha) was 8 (8 - Approaching complete kill), the TRZAW rating ([21]; dose 0.013 kg/ha) was 1 (1 - Trace effect) and the TRZAW rating ([21]; dose 0.025 kg/ha) was 1 (1 - Trace effect). The TRZAW rating ([21]; dose 0.1 kg/ha) was 3 (3 - Moderate effect), the TRZAW rating ([21]; dose 0.4 kg/ha) was 4 (4 - Injury) and the ALOMY rating ([22]; dose 0.013 kg/ha) was 4 (4 - Injury). The ALOMY rating ([22]; dose 0.025 kg/ha) was 6 (6 - Herbicidal effect), the ALOMY rating ([22]; dose 0.1 kg/ha) was 8 (8 - Approaching complete kill) and the ALOMY rating ([22]; dose 0.4 kg/ha) was 9 (9 - Complete kill).
